Reference: PMC5380267 (Medicine, 2017)
Values belong to the molecule of their own block, whether it stands above or below them.

Key:
[1] = Chronic allograft nephropathy diagnosis in renal transplant patients (protocol biopsies, Banff 97); conditions: EVR co-administration
[2] = MPA pharmacokinetics in renal transplant patients on MMF (plasma HPLC-UV, Bayesian estimation of AUC); assay type: in vivo, human; conditions: for AUC(0-t) / Cmax: human, plasma; for AUC(0-t): MPA AUC(0–12); for Patients with MPA AUC outside the therapeutic window range: range 30–60 h mg/L
From the text: Anonymized medical records of 404 patients receiving immunosuppressant therapy after renal transplantation hospitalized at Limoges University Hospital (France) during the study period from 2011 to 2012 were reviewed. […] The patients were excluded if they received immunosuppression with other medicaments and underwent transplantation of other organs.
All patients received prednisolone orally by standard hospital practice.
According to the MMF daily dose, the study patients were allocated into the 3 study groups: the low MMF dose group received 1000 mg per day (28 patients); medium MMF dose group, 2000 mg per day (54 patients); and high MMF dose group, 3000 mg per day (18 patients).
Blood samples were collected in EDTA tubes at 20 minutes, 1 and 3 hours after the administration of MMF. Plasma was separated by centrifugation. […] Blood serum (500 μL), an internal standard (50 μL) (thiopental in methanol 1 g/L diluted with deproteinized water to 25 mg/L), and calibrators were acidified with hydrochloric acid and extracted with dichloromethane (5 mL). […] The organic fraction was then evaporated to dryness under a stream of nitrogen. The dry residue was reconstituted with 100-μL elution solvent (KH2PO4 buffer/acetonitrile [70/30 v/v] at pH = 2.6). Then, the sample (40 μL) was injected into the HPLC system with a steel column Nucleosil C18, 5 μm (250 × 4.6 mm, id) and with UV detection at 300 nm.

[3] = Low-dose MMF group, 1000 mg/day, EVR group

- Chronic allograft nephropathy diagnosed, patients ([1]; high MMF dose group (2 of 4)): 50.0%
- Chronic allograft nephropathy diagnosed, patients ([1]; in total): 64.7%
- Chronic allograft nephropathy diagnosed, patients ([1]; low MMF dose group (7 of 9)): 77.8%
- Chronic allograft nephropathy diagnosed, patients ([1]; medium MMF dose group (2 of 4)): 50.0%
SMILES: CO[C@H]1C[C@@H]2CC[C@@H](C)[C@@](O)(O2)C(=O)C(=O)N2CCCC[C@H]2C(=O)O[C@H]([C@H](C)C[C@@H]2CC[C@@H](OCCO)[C@H](OC)C2)CC(=O)[C@H](C)/C=C(\C)[C@@H](O)[C@@H](OC)C(=O)[C@H](C)C[C@H](C)/C=C/C=C/C=C/1C [EVR, everolimus]

- MPA AUC lower in low CsA dose group versus high CsA dose group ([2]; CsA 120–180 mg versus 240–300 mg): approximately 33%
- MPA C0, mean ± SD (range) ([2]; CsA + MMF group, all MMF doses (n = 83)): 1.00 ± 0.47 (0.00–2.00) mg/L
- MPA C0, mean ± SD (range) ([2]; EVR + MMF group, all MMF doses (n = 17)): 2.58 ± 1.43 (0.68–4.98) mg/L
- MPA C0, mean ± SD (range) ([2]; High-dose MMF group, 3000 mg/day, CsA group): 1.29 ± 0.47 (1.00–2.00) mg/L
- MPA C0, mean ± SD (range) ([2]; High-dose MMF group, 3000 mg/day, EVR group): 3.19 ± 1.60 (1.41–4.89) mg/L
- MPA C0, mean ± SD (range) ([2]; Low-dose MMF group, 1000 mg/day, CsA group): 0.58 ± 0.51 (0.00–1.00) mg/L
- MPA AUC(0–12), mean ± SD (range) [2, 3]: 31.89 ± 8.43 (20.82–42.25) h mg/L
- MPA C0, mean ± SD (range) [2, 3]: 1.61 ± 0.65 (0.68–2.24) mg/L
- MPA C0, mean ± SD (range) ([2]; Medium-dose MMF group, 2000 mg/day, EVR group): 4.17 ± 0.78 (3.12–4.98) mg/L
- AUC(0-t) ([2]; mean ± SD (range), CsA + MMF group, all MMF doses (n = 83)): 37900 ± 14100 ng·h/mL
- AUC(0-t) ([2]; mean ± SD (range), EVR + MMF group, all MMF doses (n = 17)): 47000 ± 21900 ng·h/mL
- AUC(0-t) ([2]; mean ± SD (range), High-dose MMF group, 3000 mg/day, CsA group): 44600 ± 14000 ng·h/mL
- AUC(0-t) ([2]; mean ± SD (range), High-dose MMF group, 3000 mg/day, EVR group): 59500 ± 18300 ng·h/mL
- AUC(0-t) ([2]; mean ± SD (range), Low-dose MMF group, 1000 mg/day, CsA group): 30600 ± 12700 ng·h/mL
- AUC(0-t) ([2]; mean ± SD (range), Medium-dose MMF group, 2000 mg/day, CsA group): 38700 ± 13700 ng·h/mL
- AUC(0-t) ([2]; mean ± SD (range), Medium-dose MMF group, 2000 mg/day, EVR group): 68700 ± 22700 ng·h/mL
- AUC(0-t) ([2]; mean ± SD, CsA + MMF, MMF 1000 mg/day, CsA 120–180 mg/day): 28100 ± 11000 ng·h/mL
- AUC(0-t) ([2]; mean ± SD, CsA + MMF, MMF 1000 mg/day, CsA 180–240 mg/day): 40500 ± 11000 ng·h/mL
- AUC(0-t) ([2]; mean ± SD, CsA + MMF, MMF 2000 mg/day, CsA 120–180 mg/day): 28800 ± 11100 ng·h/mL
- AUC(0-t) ([2]; mean ± SD, CsA + MMF, MMF 2000 mg/day, CsA 180–240 mg/day): 41800 ± 15600 ng·h/mL
- AUC(0-t) ([2]; mean ± SD, CsA + MMF, MMF 2000 mg/day, CsA 240–300 mg/day): 43000 ± 6270 ng·h/mL
- AUC(0-t) ([2]; mean ± SD, CsA + MMF, MMF 3000 mg/day, CsA 120–180 mg/day): 36200 ± 3700 ng·h/mL
- AUC(0-t) ([2]; mean ± SD, CsA + MMF, MMF 3000 mg/day, CsA 180–240 mg/day): 43400 ± 13100 ng·h/mL
- AUC(0-t) ([2]; mean ± SD, CsA + MMF, MMF 3000 mg/day, CsA 240–300 mg/day): 56800 ± 16800 ng·h/mL
- Cmax ([2]; MPA Cmax related to high-dose CsA, CsA >240 mg/day): > 10000 ng/mL
- Cmax ([2]; MPA Cmax, mean ± SD (range), CsA + MMF group, all MMF doses (n = 83)): 17600 ± 8510 ng/mL
- Cmax ([2]; MPA Cmax, mean ± SD (range), EVR + MMF group, all MMF doses (n = 17)): 14300 ± 6380 ng/mL
- Cmax ([2]; MPA Cmax, mean ± SD (range), High-dose MMF group, 3000 mg/day, CsA group): 21000 ± 7050 ng/mL
- Cmax ([2]; MPA Cmax, mean ± SD (range), Low-dose MMF group, 1000 mg/day, CsA group): 15500 ± 8930 ng/mL
- Cmax ([2]; MPA Cmax, mean ± SD (range), Low-dose MMF group, 1000 mg/day, EVR group): 10800 ± 4810 ng/mL
- Cmax ([2]; MPA Cmax, mean ± SD (range), Medium-dose MMF group, 2000 mg/day, CsA group): 17500 ± 8580 ng/mL
- Cmax ([2]; MPA Cmax, mean ± SD (range), Medium-dose MMF group, 2000 mg/day, EVR group): 17400 ± 7740 ng/mL
- Cmax ([2]; MPA Cmax, mean ± SD, CsA + MMF, MMF 1000 mg/day, CsA 120–180 mg/day): 12100 ± 5590 ng/mL
- Cmax ([2]; MPA Cmax, mean ± SD, CsA + MMF, MMF 1000 mg/day, CsA 180–240 mg/day): 22800 ± 10800 ng/mL
- Cmax ([2]; MPA Cmax, mean ± SD, CsA + MMF, MMF 2000 mg/day, CsA 120–180 mg/day): 13000 ± 6820 ng/mL
- Cmax ([2]; MPA Cmax, mean ± SD, CsA + MMF, MMF 2000 mg/day, CsA 180–240 mg/day): 17000 ± 8020 ng/mL
- Cmax ([2]; MPA Cmax, mean ± SD, CsA + MMF, MMF 2000 mg/day, CsA 240–300 mg/day): 22800 ± 8860 ng/mL
- Cmax ([2]; MPA Cmax, mean ± SD, CsA + MMF, MMF 3000 mg/day, CsA 120–180 mg/day): 19000 ± 5390 ng/mL
- Cmax ([2]; MPA Cmax, mean ± SD, CsA + MMF, MMF 3000 mg/day, CsA 180–240 mg/day): 22800 ± 8120 ng/mL
- Cmax ([2]; MPA Cmax, mean ± SD, CsA + MMF, MMF 3000 mg/day, CsA 240–300 mg/day): 21200 ± 8770 ng/mL
- MPA AUC(0–12) higher with MMF + EVR than with MMF + CsA ([2]; medium MMF dose (2000 mg)): 43%
SMILES: COc1c(C)c2c(c(O)c1C/C=C(\C)CCC(=O)O)C(=O)OC2 [MPA, mycophenolic acid]
- Patients with MPA AUC outside the therapeutic window range ([2]; MMF + CsA): 31.3%
- Patients with MPA AUC outside the therapeutic window range ([2]; MMF + EVR): 47.00%
- Patients with MPA AUC outside the therapeutic window range ([2]; all study patients): 34%
